Measurements as given in patent US11110117B2, “Skin preparation composition for external use containing complex hyaluronic acid” (J2KBIO CO., LTD., priority 2019, dated 2021).

What was measured:
type 1 procollagen = experiment: Type 1 procollagen biosynthesis promoting effect (procollagen type-1 C-peptide EIA); type: cell-based; conditions: sample 0.001 weight %; human dermal fibroblasts, 24 hours
Experimental: Human dermal fibroblasts isolated from neonatal foreskin tissues were distributed from Modern Tissue Technology (MTT, Korea), and a 10% fetal bovine serum (FBS) was added to a medium of DMEM/F-12 (3:1) and cultured at the concentration of 1×10^4 cell/cm^2. At about 70% to 80% confluence, the cells were inoculated at a ratio of 1:3 and subcultured, and the cells subcultured for the third to fourth generations were used in the experiment.
For experiments to measure the amount of procollagen, the fibroblasts were cultured by more than 90% in a 48-well plate, and then each of […], and an amount of collagen isolated in the medium after 24 hours was measured by using a procollagen type-1 C-peptide EIA kit (MK101, Takara, Japan).

[1] = system: Human keratinocytes HaCaT cell lines; experiment: Intracellular active oxygen scavenging effect after UVB (DCFH-DA fluorescence); type: cell-based; conditions: sample 0.01 weight %, UVB 20 mJ/cm^2
Experimental: Cell lines used in the experiment were the Human keratinocytes HaCaT cell lines distributed from Dr. Fusenig in German Cancer Research Center. […] Subsequently, 100 μl of HCSS treated for each concentration was added, and then the fluorescence of dichlorofluorescein (DCF) oxidized with active oxygen in the early stage was measured with a fluorescent plate reader (Ex; 485 nm, and Em; 530 nm). Subsequently, irradiation with UVB (20 mJ/cm^2) was performed, and the fluorescence after the sample treatment was measured by a fluorescent plate reader (Ex; 485 nm, and Em; 530 nm).

[2] = Antioxidant effect (active oxygen scavenging) by NBT method; type: biochemical; conditions: sample 0.1 weight %, absorbance 560 nm
Experimental: In order to measure the antioxidant effect, active oxygen generated by xanthine and xanthine oxidase was measured by the NBT method, and an effect of removing active oxygen by a test substance, that is, the active oxygen scavenging effect was evaluated. Active oxygen was generated by xanthine and xanthine oxidase, and this active oxygen reacts with nitro blue tetrazolium (NBT). […] 0.1 ml of a xanthine oxidase solution was added and quickly stirred, culture at 25° C. for 20 minutes was started, 0.1 ml of a 6 mM CuCl2 solution was added to stop the reaction, and an absorbance St at 560 nm was measured. In a blank test, the same operation was performed in the same manner except that distilled water was used instead of the sample solution, and an absorbance Bt was measured. In a blank of the sample solution, the same operation was performed in the same manner except that the distilled water was used instead of xanthine oxidase, and an absorbance […] was measured. Inhibition rate (%)=[1−(St−So)/(Bt−Bo)]×100 <Equation 1> St: Absorbance at 560 nm after enzyme reaction of sample solution Bt: Absorbance at 560 nm after enzyme reaction of blank test solution So: Absorbance at 560 nm before reaction of sample solution in the absence of enzyme Bo: Absorbance at 560 nm before reaction of blank test solution in the absence of enzyme

[3] = Free radical scavenging activity by DPPH method; type: biochemical; conditions: sample 0.1 weight %, 30 minutes at 37° C.
Experimental: Each sample was prepared at the concentration of 0.1% to measure DPPH free radical scavenging activity. Each sample at the above concentration was introduced to a 96-well plate, and DPPH produced with a 100 uM methanol solution was added thereto, such that the total volume of the solution became 200 μl. The resultant was left for 30 minutes at 37° C., and an absorbance was measured at 560 nm. The free radical scavenging activity (%) was calculated by Equation 2 below. Free radical scavenging activity (%)=100−(B/A)×100 <Equation 2> A: Absorbance of control wells in the absence of sample treatment B: Absorbance of experimental wells with sample treatment

MMP-1 = MMP-1 expression inhibition after UVA irradiation (ELISA); type: cell-based; conditions: retinol, concentration not given; human dermal fibroblasts, UVA 6.3 J/cm^2, 24 hours
Experimental: Human dermal fibroblasts were irradiated with UVA at an energy of 6.3 J/cm^2 by using a UV chamber. With respect to UV irradiation dose and culture time, conditions for maximizing an MMP expression amount in fibroblasts were established by preliminary experiments. A negative control was wrapped in silver foil and kept for the same period of time in the UVA environment. A UVA emission amount was measured by using a UV radiometer. The cells during the UVA irradiation were the same medium inoculated before without change and were exchanged with a medium containing the samples after UVA irradiation. The medium was collected after culturing for 24 hours, and 96 wells were coated with the medium. A primary antibody (MMP-1 (Ab-5) monoclonal antibody) was treated and reacted at 37° C. for 60 minutes. After an anti-mouse IgG (whole mouse, alkaline phosphatase conjugated), which was a secondary antibody, was reacted again for about 60 minutes, the alkaline phosphatase substrate solution (1 mg/ml p-nitrophenyl phosphate in diethanolamine buffer solution) was reacted at room temperature for 30 minutes, and then an absorbance was measured at 405 nm with a plate reader. As a control, a medium to which the sample was not added was used.

## TGF-β
Type 1 procollagen
  Procollagen biosynthesis promoting effect (%): 35%

## O=C(O[C@@H]1Cc2c(O)cc(O)cc2O[C@@H]1c1cc(O)c(O)c(O)c1)c1cc(O)c(O)c(O)c1 [EGCG]
[1]
  Active oxygen scavenging effect (%): 45%

## Cc1cc(C(C)(C)C)c(O)c(C(C)(C)C)c1 [BHT, butylated hydroxytoluene]
[2]
  Antioxidant effect (active oxygen scavenging) (%): 87%
[3]
  Free radical scavenging activity (%): 81%

## CC1=C(/C=C/C(C)=C/C=C/C(C)=C/CO)C(C)(C)CCC1 [Retinol, retinol]
MMP-1
  MMP-1 expression inhibition rate (%): 38%
